Legend:
Format in all cases: physicochemical
[1] = Aqueous solubility with pH measurement; conditions: water, 25° C., 24 hours; hydrochloride
Description: Each sample was suspended in 0.25 ml of solvent (water) in an amount effective to produce a maximum final concentration of greater than or equal to about 10 mg/ml of the parent free form of the compound (i.e., adding excess sample to account for the weight of the salt). […] The filtrate was then diluted down 101 times.

[2] = Storage at 40° C./75% RH under ambient light (XRPD, HPLC purity, colour)
Description: (§1) Purity analysis was performed on an Agilent HP1100 system equipped with a diode array detector and using Chemstation V9 software. Gradient, Reverse Phase methods (duration approximately 40 minutes) were used in a HPLC1 system. A Thermo-Electron Corporation HyPurity C18 5 um 150×4.6 mm column was used at 25° C. Test samples were made-up of 0.2 mg/ml of the compound in acetonitrile:water (1:1 v/v). 10 μl of sample was injected into the column. The flow rate through the column was 1 ml/min and the detection wavelength, bandwidth was 254,8 nm. Phase A was 0.1% phosphoric acid in water and Phase B was 0.1% phosphoric acid in acetonitrile. The mobile phase timetable is shown below in Table 2.
Form I was characterized by pKa, LogP, LogPion and LogD determination and prediction, XRPD before and after storage at 40° C./75% RH for 4 weeks, PLM, DSC and TGA, ^1HNMR, solubility in water with pH measurement, HPLC purity before and after storage at 40° C./75% RH for 4 weeks, water content, GVS with XRPD and purity analysis after measurement, and VT-XRPD.
Form II has been characterized using XRPD before and after storage at 40° C./75% RH for 3 weeks, PLM, DSC and TGA, Solubility in water with pH measurement, HPLC purity, Water content, GVS with XRPD analysis after measurement, and VT-XRPD.

[3] = Gravimetric vapor sorption (GVS)
Description: GVS was used to determine the amount of water adsorbed by a sample. Briefly, samples were run on a Hiden IGASorp moisture sorption analyzer running CFRSorp software. Sample sizes were typically 10 mg. A moisture adsorption desorption isotherm was performed as outlined below in Table 3 (2 scans giving 1 complete cycle). Samples were loaded/unloaded at typical room humidity and temperature (40% RH, 25° C.). Samples were then analyzed by XRPD after GVS analysis, e.g., to determine whether any structural changes took place after adsorption of water. The standard isotherm was performed at 25° C. at 10% RH intervals over a 0-90% RH range.

[4] = Variable temperature XRPD (VT-XRPD); conditions: 25° C. to 245° C., then cooled to 30° C.
Description: Samples run under ambient conditions were prepared as flat plate specimens using powder without grinding unless otherwise stated. Approximately 1-2 mg of the sample was lightly pressed on a glass slide to obtain a flat surface. Samples run under non-ambient conditions (VT-XRPD) were mounted on a silicon wafer with heat conducting compound. The sample was then heated to the appropriate temperature at about 20° C./minute and subsequently held isothermally for about 1 minute before data collection was initiated.
Three samples were studied using variable temperature XRPD (VT-XRPD): Form I as received, substantially pure Form I as prepared in Example 3, and substantially pure Form II as prepared in Example 3. VT-XRPD studies were initially carried out on substantially pure Form I as prepared in Example 3 with measurements at 25° C., 50° C., 80° C., 150° C., 220° C., 225° C., 250° C. and cooling to 29° C. Prior to measurement of the last XRPD pattern, the material was crushed due to the growth of large crystals. An overlay of the XRPD patterns can be found in FIG. 4A.
An experiment was also carried out on Form I as received, with measurements at 26° C., 50° C., 150° C., 200° C., 210° C., 220° C., 230° C. and cooling to 27° C. An overlay of the XRPD patterns can be found in FIG. 4B. […] (see peak at ˜14.7 2θ). […]

[5] = 10 week stability study at 40° C./75% RH and 60° C./75% RH, light and dark
Description: as §1
Samples of Form I and II were tested at 40° C./75% RH and 60° C./75% RH in both light and dark conditions for up to 10 weeks. As the samples were located in temperature/humidity control chambers, the exposure to light was limited to normal laboratory light conditions with artificial light and some winter daylight through the windows.
Approximately 100 mg of each sample was weighed into plastic weighing boats and spread out to form an even thin layer for each of the temperature/humidity/light conditions, as shown in Table 6. The dark samples were protected from exposure to light by wrapping them in aluminum foil. The foil was pierced to allow exposure to humidity.
Time points chosen for HPLC analysis during the stability study were T=0, 1, 2, 5 and 10 weeks. At 10 weeks, the samples were analyzed using XRPD, DSC and polarized light microscopy.

## Cc1cc2c(-c3ccccc3F)nc(N3CCNCC3)nc2s1.Cl [Form II, 4-(2-fluorophenyl)-6-methyl-2-(piperazin-1-yl)thieno[2,3-d]pyrimidine hydrochloride]
[1]
  Aqueous solubility (free base equivalent): 1600 µg/mL
  pH of the solubility sample: 6.39
[2]; 3 weeks at 40° C./75% RH, ambient light
  Colour of material surface after storage: had not changed color
[2]; 40° C./75% RH for 4 days, samples from acetone and acetonitrile
  XRPD after storage: remained unchanged
[2]; 40° C./75% RH for three weeks
  XRPD pattern after storage: unchanged
[2]; three weeks at 40° C./75% RH
  HPLC purity after storage: 100%
[3]; after one adsorption/desorption cycle
  XRPD reanalysis after GVS: did not show any change
[3]; between 0 and 40% RH
  GVS weight increase: 1.4%
  GVS weight increase, equivalent water: 0.29 moles of water
[3]; between 0 and 90% RH
  GVS weight increase, equivalent water: 0.39 moles of water
[3]; between 0 and 90% RH, single cycle, 25° C., hydrochloride
  GVS total weight increase: 1.9%
[4]
  Form on heating (VT-XRPD): remained as Form II throughout the experiment
[5]; 40° C./75% RH, Dark, 1 week
  Purity %: 99.9%
[5]; 40° C./75% RH, Dark, 2 weeks
  Purity %: 100%
[5]; 40° C./75% RH, Dark, 5 weeks
  Purity %: 100%
[5]; 40° C./75% RH, Dark, 10 weeks, hydrochloride
  Purity %: 100%
[5]; 40° C./75% RH, Light, 1 week
  Purity %: 99.9%
[5]; 40° C./75% RH, Light, 2 weeks
  Purity %: 100%
[5]; 40° C./75% RH, Light, 5 weeks, hydrochloride
  Purity %: 99.9%
[5]; 40° C./75% RH, Light, 10 weeks, hydrochloride
  Purity %: 99.9%
[5]; 60° C./75% RH, Dark, 1 week
  Purity %: 99.9%
[5]; 60° C./75% RH, Dark, 2 weeks, hydrochloride
  Purity %: 100%
[5]; 60° C./75% RH, Dark, 5 weeks
  Purity %: 100%
[5]; 60° C./75% RH, Dark, 10 weeks, hydrochloride
  Purity %: 99.9%
[5]; 60° C./75% RH, Light, 1 week
  Purity %: 99.8%
[5]; 60° C./75% RH, Light, 2 weeks, hydrochloride
  Purity %: 99.9%
[5]; 60° C./75% RH, Light, 5 weeks, hydrochloride
  Purity %: 99.8%
[5]; 60° C./75% RH, Light, 10 weeks, hydrochloride
  Purity %: 99.7%
[5]; time point 0 weeks, hydrochloride
  Purity %: 99.9%
[5]; up to 10 weeks, 40° C./75% RH and 60° C./75% RH
  Stability as indicated by the HPLC data: stable to ambient light levels as well as elevated temperature and humidity

— patent US20070254891A1, “Crystalline forms of 4-(2-fluorophenyl)-6-methyl-2-(piperazin-1-yl)thieno[2,3-d]pyrimidine” (Dynogen Pharmaceuticals, Inc., priority 2006, published 2007)
